Results taken from PMC8950706, “Influence of Substitutions in the Binding Motif of Proline-Rich Antimicrobial Peptide ARV-1502 on 70S Ribosome Binding and Antimicrobial Activity” (International Journal of Molecular Sciences, 2022).
Values after ≈ are worked out from the molar mass of the structure shown. Marks after values point to notes of the source that are not given here. Square brackets hold non-standard residues; d marks the D form. Peptide text beside a SMILES is read from it. Ac6c = NC1(C(=O)O)CCCCC1

Assays:
E. coli BW25113 = assay: MIC, liquid broth micro dilution, wild type; assay type: cell-based, Escherichia coli
Method: (§1) MIC values were determined using a liquid broth micro dilution assay in sterile 96-well plates (polystyrene F-bottom, Greiner Bio-One GmbH) and a total volume of 100 μL per well. Aqueous peptide solutions (10 g/L) were serially twofold diluted in 25% Mueller-Hinton broth 2 (25% MBH2) or 33% tryptic soy broth (33% TSB) starting at a peptide concentration of 128 mg/L (50 μL/well). Overnight cultures of bacteria grown in 25% MHB2 (or 33% TSB) were diluted 30-fold in 25% MHB2 (or 33% TSB). After an incubation period of 4 h (37 °C, 200 rpm), cells were diluted to 1.5 × 10^7 cfu/mL, based on a McFarland test, and 50 μL were added to each well (final concentration of 7.5 × 10^6 […]). The plates were incubated (37 °C, 20 h) and the optical density was recorded at 595 nm using a microplate reader ([…]^TM, Beckmann Coulter). The MIC was defined as the lowest peptide concentration preventing visible bacterial growth.

E. coli BW25113 ∆sbmA = assay type: cell-based, Escherichia coli; details: for Minimal Inhibitory Concentration, 25% MHB2, ∆sbmA: 25% MHB2, 37 °C; for Minimal Inhibitory Concentration, 25% MHB2, ∆sbmA / Minimal Inhibitory Concentration, 33% TSB, ∆sbmA: 20 h, at least duplicates on two days, * once on two days, ** duplicate on one day; for Minimal Inhibitory Concentration, 33% TSB, ∆sbmA: 37 °C
Method: as §1

[1] = test system: E. coli BW25113 ∆sbmA ∆mdtM; assay type: cell-based, Escherichia coli; details: for Minimal Inhibitory Concentration, 25% MHB2, ∆sbmA ∆mdtM: 25% MHB2, 37 °C; for Minimal Inhibitory Concentration, 25% MHB2, ∆sbmA ∆mdtM / Minimal Inhibitory Concentration, 33% TSB, ∆sbmA ∆mdtM: 20 h, at least duplicates on two days, * once on two days, ** duplicate on one day; for Minimal Inhibitory Concentration, 33% TSB, ∆sbmA ∆mdtM: 37 °C; for Effect of the additional mdtM knockout on antibacterial activity: ∆sbmA ∆mdtM compared with ∆sbmA
Method: as §1

E. coli 70S ribosome [2] = assay: Competitive FP binding screening assay with Cf-ARV-1502 (relative FP); set-up: species or system E. coli BW25113; details: for Inhibition of Cf-ARV-1502 binding to the 70S ribosome (in words): Figure 3: peptide concentration 1.2 µmol/L; for Ribosome Binding (%): competitive ribosome binding against Cf-ARV-1502 (relative FP; values match 1.2 µmol/L peptide), low value = strong competition
Method: E. coli 70S ribosomes were prepared using a previously described protocol that was slightly modified. Briefly, E. coli BW25113 was cultivated in Luria-Bertani (LB) medium and cells were harvested after reaching an optical density of ~4 at 600 nm by centrifugation (5000× g, 15 min, 4 °C, Rotor JLA 8.100, Avanti J-20 XP, Beckmann Coulter, Krefeld, Germany). The cell pellets were frozen and stored at −80 °C. Cells were resuspended in ribosome buffer (2 mL/g cells; 20 mmol/L HEPES-KOH, 6 mmol/L MgCl2, 30 mmol/L NH4Cl, 4 mmol/L 2-mercaptoethanol, pH 7.6). Lysozyme (0.25 g/L cell suspension) was added, and the mixture was incubated on ice for 30 min. Cells were disrupted using the bead mill homogenizer FastPrep-24™ 5G (40 s, 4 m/s, 6 cycles, MP Biomedicals Germany GmbH, Eschwege, Germany) and zirconia/silica beads (0.1 mm diameter). The lysate was centrifuged (1500× g, 5 min, 4 °C, Rotor S4180, Allegra 21R, Beckmann Coulter) and the supernatant was incubated with DNase (5 U/mL) on ice for 60 min. The cell debris was removed by two centrifugation steps (16,000× g, 30 min, 4 °C followed by 32,000× g, 60 min, 4 °C, Rotor JA 30.50 Ti, Avanti J-30I, Beckmann Coulter). The ribosome was pelleted by ultracentrifugation (165,000× g, 17 h, 4 °C, Rotor 70 Ti, Optima LE-80K, Beckmann Coulter), resuspended in ribosome buffer (0.1 mL/g pellet), and stored at −80 °C. The ribosome concentration was determined by recording the absorbance of RNA at 260 nm (NanoPhotometer NP80, Implen GmbH, München, Germany) assuming that 1 AU corresponds to a ribosome concentration of 28 nmol/L. The molecular weight of the E. coli 70S ribosome was assumed to be 2.3 MDa.
E. coli 70S ribosomes and Cf-ARV-1502 were incubated with four different concentrations of unlabeled peptides chosen based on the IC50 curves of reference peptide ARV-1502. Each peptide was diluted in ribosome buffer to obtain a concentration of 4.8 µmol/L and transferred to a 384-well-plate. Peptides were then twofold serially diluted in four steps from 4.8 to 0.6 µmol/L (20 µL). The ribosome extract was diluted in ribosome buffer to reach a concentration of 2 µmol/L and 10 µL were added to each well to obtain a final ribosome concentration of 0.5 µmol/L. Plates were centrifuged (2 min, 500× g, Rotor S2096, Allegra^TM 21R, Beckmann Coulter) and incubated at 28 °C for 90 min. Cf-labeled ARV-1502 was added (10 µL; final concentration of 20 nmol/L) and the plates were again centrifuged and incubated (28 °C, 90 min). After incubation, fluorescence polarization was recorded on a […]^TM microplate reader (λex = 485 nm, λem = 535 nm).
On each plate 12 minimum (30 µL ribosome buffer and 10 µL Cf-ARV-1502) and 12 maximum (20 µL ribosome buffer, 10 µL ribosome solution and 10 µL Cf-ARV-1502) control samples were added. Fluorescence polarization of screening samples was normalized to the fluorescence polarization of these control samples. All screening samples were measured in triplicates and the whole experiment was repeated once on another day.

E. coli 70S ribosome [3] = assay: Cell-free GFP expression assay (in vitro translation); assay type: biochemical; details: for In Vitro Translation (%): GFP expression remaining relative to control, concentration not given (higher concentration 50 µmol/L); for Reduction of GFP expression, 50 µmol/L peptide: cell-free expression, peptide-to-ribosome ratio of 25, GFP fluorescence, 37 °C
Source text: Possible effects of ARV-1502 and its substituted analogs on the in vitro translation of the green fluorescent protein (GFP) were probed using the NEB PureExpress Delta RF123 Kit (New England Biolabs, Ipswich, MA, USA). The sfGFP DNA template was amplified from pY71sfGFP plasmid by PCR introducing an UAA stop codon. Release factor 1 (RF1) was 50fold diluted in Pure System Buffer (PSB) containing magnesium acetate (1 mol/L), monopotassium phosphate (0.5 mol/L, pH 7.3), potassium glutamate (1 mol/L), NH4Cl (1 mol/L), calcium chloride (0.5 mol/L), spermidine (1 mol/L), putrescine (0.1 mol/L), and DTT (0.1 mol/L). Each reaction used 35 ng of sfGFP template. Peptides were added at a final concentration of 5 µmol/L and 50 µmol/L. The reaction was started by adding Kit solutions A (2 µL) and B (1.5 µL), diluted RF1 (0.5 µL), sfGFP template (0.25 µL or water as negative control), PSB (0.25 µL), and peptide (0.5 µL or water), mixed, transferred into a black 384-well plate (flat bottom, Greiner Bio-One GmbH), and incubated (37 °C, 2 h). The fluorescence was recorded every 10 min (λexc = 485 nm, λem = 535 nm) in a microplate reader (Gemini EM, Molecular Devices LLC, San Jose, CA, USA).

[4] = 33% TSB, 37 °C, 20 h, at least duplicates on two days, * once on two days, ** duplicate on one day

Row | Compound | MIC (µg/mL), Table 3 (E. coli BW25113; BW25113, 4 h) | Minimal Inhibitory Concentration, 25% MHB2, wt (E. coli BW25113; BW25113, 20 h) | Minimal Inhibitory Concentration, 33% TSB, wt (E. coli BW25113; BW25113, 20 h) | MIC / activity against E. coli (E. coli BW25113; medium not given) | Minimal Inhibitory Concentration, 25% MHB2, ∆sbmA (E. coli BW25113 ∆sbmA) | Minimal Inhibitory Concentration, 33% TSB, ∆sbmA (E. coli BW25113 ∆sbmA) | Minimal Inhibitory Concentration, 25% MHB2, ∆sbmA ∆mdtM [1] | Minimal Inhibitory Concentration, 33% TSB, ∆sbmA ∆mdtM [1] | Inhibition of Cf-ARV-1502 binding to the 70S ribosome (in words) (E. coli 70S ribosome [2]) | Ribosome Binding (%) (E. coli 70S ribosome [2]) | In Vitro Translation (%) (E. coli 70S ribosome [3]) | Effect of the additional mdtM knockout on antibacterial activity [1] | Reduction of GFP expression, 50 µmol/L peptide (E. coli 70S ribosome [3]) | Minimal Inhibitory Concentration, 25% MHB2, wt (E. coli BW25113; 25% MHB2, 37 °C, 20 h, at least duplicates on two days, * once on two days, ** duplicate on one day) | Minimal Inhibitory Concentration, 33% TSB, wt (E. coli BW25113; [4]) | Effect of deletion of SbmA on antibacterial activity (E. coli BW25113 ∆sbmA; ∆sbmA compared with wild-type strain) | MIC / activity against E. coli (E. coli BW25113; BW25113, 4 h)
1 | CC(C)C[C@H](NC(=O)[C@H](Cc1ccc(O)cc1)NC(=O)[C@@H]1CCCN1C(=O)[C@H](CCCNC(=N)N)NC(=O)[C@@H]1CCCN1C(=O)[C@H](CC(=O)O)NC(=O)[C@H](CO)NC(=O)[C@@H]1CCCN1C(=O)[C@H](CCCNC(=N)N)NC(=O)C1(N)CCCCC1)C(=O)N1CCC[C@H]1C(=O)N[C@@H](CCCNC(=N)N)C(=O)N1CCC[C@H]1C(=O)N[C@@H](CCCNC(=N)N)C(=O)N1CCC[C@H]1C(=O)N1CCC[C@H]1C(=O)N[C@@H](CCCNC(=N)N)C(=O)N1CCC[C@H]1C(=O)N[C@H](C(=O)N[C@@H](CCCNC(=N)N)C(N)=O)C(C)C [Peptide 50] (H-[Ac6c]RPSDPRPYLPRPRPPRPVR-NH2) | 128 µg/mL (≈ 52.6 µM) | 128 µg/mL | 64 µg/mL | low activity against E. coli | >128 µg/mL | >128 µg/mL | >128 µg/mL | >128 µg/mL | inhibited Cf-ARV-1502 | 67.9 ± 4.8% | 113.7 ± 9.1% | – | – | – | – | – | –
2 | CC(C)[C@H](NC(=O)[C@@H]1CCCN1C(=O)[C@H](CCCNC(=N)N)NC(=O)[C@@H]1CCCN1C(=O)[C@@H]1CCCN1C(=O)[C@H](CCCNC(=N)N)NC(=O)[C@@H]1CCCN1C(=O)[C@H](CCCNC(=N)N)NC(=O)[C@@H]1CCCN1C(=O)[C@H](Cc1ccccc1)NC(=O)[C@H](Cc1ccc(O)cc1)NC(=O)[C@@H]1CCCN1C(=O)[C@H](CCCNC(=N)N)NC(=O)[C@@H]1CCCN1C(=O)[C@H](Cc1ccccc1)NC(=O)[C@H](Cc1ccccc1)NC(=O)[C@@H]1CCCN1C(=O)[C@H](CCCNC(=N)N)NC(=O)C1(N)CCCCC1)C(=O)N[C@@H](CCCNC(=N)N)C(N)=O [Peptide 96] (H-[Ac6c]RPFFPRPYFPRPRPPRPVR-NH2; N-terminus and C-terminus assumed) | 16 µg/mL (≈ 6.25 µM) | 16 µg/mL | 32 * µg/mL | – | – | – | – | – | – | 62.9 ± 4.8% | 77.2 ± 1.9% | no effect | ~ 25% | – | – | – | –
3 | CC(C)C[C@H](NC(=O)[C@H](Cc1ccc(O)cc1)NC(=O)[C@@H]1CCCN1C(=O)[C@H](CCCNC(=N)N)NC(=O)[C@@H]1CCCN1C(=O)[C@H](Cc1ccccc1)NC(=O)[C@H](Cc1ccccc1)NC(=O)[C@@H]1CCCN1C(=O)[C@H](CCCNC(=N)N)NC(=O)C1(N)CCCCC1)C(=O)N[C@@H](CO)C(=O)N[C@@H](CCCNC(=N)N)C(=O)N1CCC[C@H]1C(=O)N[C@@H](CCCNC(=N)N)C(=O)N1CCC[C@H]1C(=O)N1CCC[C@H]1C(=O)N[C@@H](CCCNC(=N)N)C(=O)N1CCC[C@H]1C(=O)N[C@H](C(=O)N[C@@H](CCCNC(=N)N)C(N)=O)C(C)C [Peptide 99] (H-[Ac6c]RPFFPRPYLSRPRPPRPVR-NH2) | – | – | – | – | 32 µg/mL | 128 µg/mL | 32 µg/mL | 128 µg/mL | did not inhibit the binding of Cf-ARV-1502 | – | – | no effect | – | 16 to 32 µg/mL | 64 µg/mL | – | –
4 | CC(C)C[C@H](NC(=O)[C@H](Cc1ccc(O)cc1)NC(=O)[C@@H]1CCCN1C(=O)[C@H](CCCNC(=N)N)NC(=O)[C@@H]1CCCN1C(=O)[C@H](Cc1ccccc1)NC(=O)[C@H](Cc1ccccc1)NC(=O)[C@@H]1CCCN1C(=O)[C@H](CCCNC(=N)N)NC(=O)C1(N)CCCCC1)C(=O)N1CCC[C@H]1C(=O)N[C@@H](CC(C)C)C(=O)N1CCC[C@H]1C(=O)N[C@@H](CCCNC(=N)N)C(=O)N1CCC[C@H]1C(=O)N1CCC[C@H]1C(=O)N[C@@H](CCCNC(=N)N)C(=O)N1CCC[C@H]1C(=O)N[C@H](C(=O)N[C@@H](CCCNC(=N)N)C(N)=O)C(C)C [Peptide 102] (H-[Ac6c]RPFFPRPYLPLPRPPRPVR-NH2; N-terminus and C-terminus assumed) | 32 to 64 µg/mL | 32 to 64 µg/mL | 64 µg/mL | – | – | – | – | – | – | 76.5 ± 5.6% | 78.9 ± 3.5% | no effect | ~ 25% | – | – | no effect | –
5 | CC(C)[C@H](NC(=O)[C@@H]1CCCN1C(=O)[C@H](CCCNC(=N)N)NC(=O)[C@@H]1CCCN1C(=O)[C@@H]1CCCN1C(=O)[C@H](CCCNC(=N)N)NC(=O)[C@@H]1CCCN1C(=O)[C@H](CCCNC(=N)N)NC(=O)[C@@H]1CCCN1C(=O)[C@H](Cc1ccccc1)NC(=O)[C@H](CCCCN)NC(=O)[C@@H]1CCCN1C(=O)[C@H](CCCNC(=N)N)NC(=O)[C@@H]1CCCN1C(=O)[C@H](CCCCN)NC(=O)[C@H](CC(=O)O)NC(=O)[C@@H]1CCCN1C(=O)[C@H](CCCNC(=N)N)NC(=O)C1(N)CCCCC1)C(=O)N[C@@H](CCCNC(=N)N)C(N)=O [Peptide 123] (H-[Ac6c]RPDKPRPKFPRPRPPRPVR-NH2) | – | 32 µg/mL | – | – | 64 µg/mL | >128 µg/mL | 128 µg/mL | >128 µg/mL | did not inhibit the binding of Cf-ARV-1502 | – | – | weakened the activity | – | – | 128 µg/mL | – | 16 to 32 µg/mL
